**Q.** Which melting point does the source give for Cn1cncc1C(c1cccs1)c1cccs1 here?
**A.** 78.5 to 80 °C

**Q.** With CCCCCCCCCCC[C@]1(C)OO[C@@H]2C[C@H]1CC(=O)[C@@H]2C as the compound, how does the melting point read?
**A.** 42 °C

**Q.** With CCSC(=NC(=O)N(C)C)NC(=O)NC as the compound, how does the melting point read?
**A.** 109 to 112 °C

**Q.** With COCOc1ccc2c(N)noc2c1 as the compound, how does the melting point read?
**A.** 88 to 89 °C

**Q.** With COC(=O)CCCN(C(=O)C(C)N(C(C)=O)c1ccc(OC)cc1)c1ccc(OC)cc1 (centres undefined) as the compound, how does the melting point read?
**A.** 111 to 113 °C

**Q.** Which melting point does the source give for CC1(C)Cc2nc(C3CCCC3)c(C(=O)c3ccc(C(F)(F)F)cc3)c(-c3ccc(F)c(F)c3)c2C(O[Si](C)(C)C(C)(C)C)C1 (centres undefined) here?
**A.** 128 to 129 °C

**Q.** For O=C(O)C(Oc1ccc(Cl)cc1)Oc1ccc(C2CCNc3ccccc32)cc1 (centres undefined), which melting point is on record?
**A.** 152 to 155 °C

**Q.** Which melting point does the source give for COC(=O)Oc1cc2c(c(O)c1C)C(=O)c1c(OC)c3c(c(O)c1C2=O)-c1c(cc2cnn(-c4ccccc4)c(=O)c2c1O)CC3 here?
**A.** > 350 °C

**Q.** For O=C(O)c1cccc(-c2ccc3c(c2)C(NCc2ccc(Cl)cc2Cl)CC3)c1 (centres undefined), which melting point is on record?
**A.** 190 to 191 °C

**Q.** For O=C(Oc1ccccn1)c1cc2cc(CCl)ccc2oc1=O, which melting point is on record?
**A.** 125 to 129 °C

**Q.** Which melting point does the source give for Nc1ccc(C(=O)O)c2ccccc12 here?
**A.** 169 to 171 °C

**Q.** For N#Cc1[nH]ccc1-c1ccc(Cl)cc1, which melting point is on record?
**A.** 114 to 115 °C

**Q.** With NC(=O)c1ncc(Cl)cc1F as the compound, how does the melting point read?
**A.** 162 to 164 °C

**Q.** For COc1cc2c(cc1OC)[C@@H]1CCCC[C@@H]1N=C2c1ccc(NC(C)=O)cc1 (racemic), which melting point is on record?
**A.** 218 °C

**Q.** With CC(C)(CO)COc1ccc(-n2cc(C(=O)O)cn2)cc1C#N as the compound, how does the melting point read?
**A.** 188 to 190 °C

**Q.** For CCOC(=O)c1sc(Oc2cccnc2)c2c1CCc1cnn(C)c1-2, which melting point is on record?
**A.** 247 to 248 °C

**Q.** For CNC(=S)Nc1ccccc1N1CCCC1, which melting point is on record?
**A.** 125 to 126 °C

**Q.** With O=C1OCCC1C(=O)c1ccc(F)cc1[N+](=O)[O-] (centres undefined) as the compound, how does the melting point read?
**A.** 87 to 89 °C

**Q.** For N#Cc1cnc2cc3cc(O)c(O)cc3cc2c1Nc1ccc(Cl)cc1Cl, which melting point is on record?
**A.** > 260 °C

**Q.** For CN1CC(=O)N(C)C1=NC(=O)Nc1cccc(Cl)c1, which melting point is on record?
**A.** 134 to 137 °C

**Q.** For CN1C(=O)CN2CCNC2(c2ccccc2)c2cc(Cl)ccc21 (centres undefined), which melting point is on record?
**A.** 164 to 167 °C

**Q.** Which melting point does the source give for COC(=O)CCCc1cc2cc(Cl)ccc2n1S(=O)(=O)c1ccc(N)c([N+](=O)[O-])c1 here?
**A.** 157 °C

**Q.** Which melting point does the source give for COC(=O)c1ccc(OC2=C3N=C4CCCCC4=C3C(Cc3ccc(OC)c(OC)c3)C=C2)o1 (centres undefined) here?
**A.** 100 to 101 °C

**Q.** With CC(Oc1ccc2nc(NC(=O)NCCN3CCC(Cc4ccccc4)CC3)sc2c1)c1c(Cl)ccc(F)c1Cl (centres undefined) as the compound, how does the melting point read?
**A.** 133 to 139 °C

**Q.** For Fc1cccc(/C=C/C2=CCN(Cc3c[nH]c4ncccc34)CC2)c1, which melting point is on record?
**A.** 199 to 201 °C

**Q.** With Clc1ccc(-c2cc3ccccc3nc2Cl)c(Cl)c1 as the compound, how does the melting point read?
**A.** 120 to 122 °C

**Q.** With O=C(CCCN1CCN(c2nc3nccc(-c4ccncc4)n3n2)CC1)c1ccc(F)cc1 as the compound, how does the melting point read?
**A.** 133 to 135 °C

**Q.** Which melting point does the source give for Cc1ccc(C)c(S(=O)(=O)n2ccc3c4c(N)nc(N)nc4ccc32)c1 here?
**A.** 272 °C

**Q.** Which melting point does the source give for Cc1ccccc1C(=O)Nc1ccc(C(=O)N2CCCC(NC(=O)Nc3ccccc3)c3ccccc32)cc1 (centres undefined) here?
**A.** 269 to 271 °C

**Q.** With COc1ccc(-c2coc3cc(O)ccc3c2=O)c(OC)c1 as the compound, how does the melting point read?
**A.** 238 to 240 °C

**Q.** Which melting point does the source give for COc1ccc(C=C(C#N)C(N)=O)c([N+](=O)[O-])c1OC here?
**A.** 194 to 195 °C

**Q.** With CCOC(=O)C1=C(C)NC(c2cscn2)=NC1c1ccccc1F (centres undefined) as the compound, how does the melting point read?
**A.** 126 to 128 °C

**Q.** For CC(C)(C)OC(=O)CC(NC(=O)C1CCCN2C(=O)CCC(NC(=O)c3ccccc3)C(=O)N12)C(O)COCc1c(Cl)cccc1Cl (centres undefined), which melting point is on record?
**A.** 106 to 110 °C

**Q.** With CCCCCCCCCCN(O)C(=O)NCC(=O)OCC as the compound, how does the melting point read?
**A.** 70 to 71 °C

**Q.** With COC1=C(OC)C(=O)C2=C(CCC(CCn3cnc4ccccc43)CC2)C1=O as the compound, how does the melting point read?
**A.** 159 to 163 °C

**Q.** For CCCCCCCCCCCCCCCCCCOc1cc(OCc2ccccc2)cc(C(=O)O)c1, which melting point is on record?
**A.** 97 to 99 °C

**Q.** With Cc1c(-c2ccc(OC(C)C)cc2)n(Cc2ccc(OCCO)cc2)c2ccc(OCc3ccccc3)cc12 as the compound, how does the melting point read?
**A.** 129 to 131 °C

**Q.** Which melting point does the source give for O=P1(c2ccc(F)cc2)c2ccccc2CN1c1ccccc1 (centres undefined) here?
**A.** 119 to 120 °C

**Q.** Which melting point does the source give for CC(=O)SCC(=O)c1cc(S(=O)(=O)N(C)C)ccc1Cl here?
**A.** 84 to 88 °C

**Q.** With Cn1ccnc1Sc1ccc(Nc2c(C#N)cnc3cc(N4CCC(N5CCCC5)CC4)ccc23)cc1Cl as the compound, how does the melting point read?
**A.** 125 to 130 °C

**Q.** For CC(C)(C)c1noc(-c2cccc(Cl)n2)n1, which melting point is on record?
**A.** 103 to 104 °C

**Q.** For COc1ccccc1-c1nc(-c2ccccc2)nc(-c2ccccc2O)n1, which melting point is on record?
**A.** 153 to 155 °C

**Q.** With COc1cc(Br)c(OC)c2c1C=C([N+](=O)[O-])CC2 as the compound, how does the melting point read?
**A.** 121 to 123 °C

**Q.** For CON1CCC(C#N)(OC(=O)Cc2c(C)cc(C)cc2C)CC1, which melting point is on record?
**A.** 75 to 78 °C

**Q.** Which melting point does the source give for NC(=O)CN1C(=O)C[C@@H]2CCCCCC[C@@H]21 (relative stereo) here?
**A.** 110 to 112 °C

**Q.** With CCCCCc1cc2c(cc1/C=C/c1ccc(C(=O)O)cc1)C(C)(C)CCC2(C)C as the compound, how does the melting point read?
**A.** 173 to 174 °C

**Q.** For N#Cc1cn(-c2cccc(F)c2)c(=O)[nH]c1=O, which melting point is on record?
**A.** 246 °C

**Q.** Which melting point does the source give for OCCCc1cnoc1-c1ccc(OC(F)(F)F)cc1 here?
**A.** 50 to 51 °C

**Q.** For O=C(Cl)c1ccc(OCc2ccccc2)c(Cl)c1, which melting point is on record?
**A.** 78 to 80 °C

**Q.** For COc1cc(C2=CCCCC2)c(Cl)cc1C(=O)N1Cc2ccc(C(=O)N(C)CC(O)CO)n2Cc2ccccc21 (centres undefined), which melting point is on record?
**A.** 155 to 157 °C

**Q.** For O=C(O)Cc1cc(C(=O)C=Cc2ccccc2Cl)ccc1O, which melting point is on record?
**A.** 235 °C

**Q.** Which melting point does the source give for O=C1CCC(Cc2ccccc2)CC1 here?
**A.** 40 to 44 °C

**Q.** With CCCOc1ccc(C(=O)Cn2cncn2)cc1 as the compound, how does the melting point read?
**A.** 97 to 99 °C

**Q.** With CC1(C)CCC(C)(C)c2cc(C(=O)CSc3ccc(C(=O)O)cc3)ccc21 as the compound, how does the melting point read?
**A.** 175 to 179 °C

**Q.** For O=c1c2cc(-c3nnn[nH]3)ccc2sc2ncccc12, which melting point is on record?
**A.** > 300 °C

**Q.** With O=C(CNS(=O)(=O)c1ccc2ccccc2c1)NCCNC(=O)C1CCN(c2ccncc2)CC1 as the compound, how does the melting point read?
**A.** 107 to 109 °C

**Q.** With COc1cc(OCc2ccccn2)ccc1C=CC(=O)CC(C)=O as the compound, how does the melting point read?
**A.** 81 to 82 °C

**Q.** Which melting point does the source give for COC(=O)C1=C(C)NC(C)=C(C(=O)OCCN2C(=O)c3ccccc3C2=O)C1c1cccc([N+](=O)[O-])c1 (centres undefined) here?
**A.** 182 °C

**Q.** With CCCCCCCCCCCCCCCCSC1OC(C)C(OC(C)=O)C(OC(C)=O)C1OC(C)=O (centres undefined) as the compound, how does the melting point read?
**A.** 49 to 50 °C

**Q.** Which melting point does the source give for O=C(NC1CCN(Cc2ccccc2)CC1)c1ccc(Nc2c(C(=O)NC3CCN(Cc4ccccc4)CC3)cnc3cc(Cl)ccc23)cc1 here?
**A.** 230 to 232 °C

**Q.** Which melting point does the source give for CN1C(=O)C(C(=O)Nc2cccc(C(F)(F)F)c2)S(=O)(=O)c2ccc(Cl)cc21 (centres undefined) here?
**A.** 196 to 200 °C

**Q.** Which melting point does the source give for N#Cc1cc2cc(C(O)(C(F)(F)F)C(F)(F)F)ccc2[nH]1 here?
**A.** 183 to 185 °C

**Q.** Which melting point does the source give for O=C(CCl)c1cc2c(s1)SCCc1cc(=O)n(-c3ccc(Cl)cc3)nc1-2 here?
**A.** 178 to 180 °C

**Q.** With COc1cccc(Nc2ncc3cc(-c4c(Cl)cccc4Cl)c(=O)n(C)c3n2)c1 as the compound, how does the melting point read?
**A.** 203 to 204 °C

**Q.** With O=C(CC1c2ccccc2C(=O)N1c1ccc2ccc(Cl)nc2n1)N1CCC2(CC1)OCCO2 (centres undefined) as the compound, how does the melting point read?
**A.** 238 to 239 °C

**Q.** With COCCn1c(=O)[nH]c2ncc(-c3ccc(O)cc3)nc21 as the compound, how does the melting point read?
**A.** 236 to 237 °C

**Q.** Which melting point does the source give for O=C(NCc1nccs1)c1ccnc(N2CCN(Cc3ccc(F)cc3)C2=O)c1 here?
**A.** 123 to 125 °C

**Q.** Which melting point does the source give for CCn1cc(-c2nc(C#N)c(N)nc2-c2ccccc2)ccc1=O here?
**A.** 193 to 199 °C

**Q.** With COc1cc2ncc(C#N)c(Nc3ccc(C)c(Br)c3)c2cc1OC as the compound, how does the melting point read?
**A.** 292 to 294 °C
